Experiments:
Chickweed [1] = experiment: post-emergence herbicidal activity, chickweed; format: in vivo, Stellaria media; settings: postemergence, 1.0 kg/ha
Cocklebur [2] = experiment: post-emergence herbicidal activity, cocklebur; format: in vivo, Xanthium strumarium L.; settings: postemergence, 1.0 kg/ha
Velvetleaf = experiment: pre-emergence herbicidal activity, velvetleaf; format: in vivo, Abutilon theophrasti; settings: preemergence, 1.0 kg/ha
Description: (§1) The test plants included soybean (Glycine max var. Winchester), field corn (Zea mays var. Pioneer 3732), wheat (Triticum aestivum var. Lew), morning glory (Ipomea lacunosa or Ipomea hederacea), velvetleaf (Abutilon theophrasti), green foxtail (Setaria viridis), Johnsongrass (Sorghum halepense), blackgrass (Aloepecurus myosuroides), common chickweed (Stellaria media), and common cocklebur (Xanthium strumarium L.).
(§2) For pre-emergence testing, two disposable fiber flats (8 cm×15 cm×25 cm) for each rate of application of each candidate herbicide were filled to an approximate depth of 6.5 cm with steam-sterilized sandy loam soil. The soil was leveled and impressed with a template to provide five evenly spaced furrows 13 cm long and 0.5 cm deep in each flat. Seeds of soybean, wheat, corn, green foxtail, and johnsongrass were planted in the furrows of the first flat, and seeds of velvetleaf, morningglory, common chickweed, cocklebur, and blackgrass were planted in the furrows of the second flat. […]
(§3) The pre-emergence flats were initially subjected to a light water spray. […] After 12-17 days, the plants were examined, and the phytotoxicity data were recorded. […]
(§4) Phytotoxicity data are taken as percent control. Percent control is determined by a method similar to the 0 to 100 rating system disclosed in "Research Methods in Weed Science," 2nd ed., B. Truelove, Ed. […]

Soybean [3] = experiment: post-emergence herbicidal activity, soybean; format: in vivo, Glycine max var. Winchester; settings: postemergence, 1.0 kg/ha
Corn [4] = experiment: pre-emergence herbicidal activity, corn; format: in vivo, Zea mays var. Pioneer 3732; settings: preemergence, 1.0 kg/ha
Description: as §1, §2, §3, §4

Johnsongrass [5] = experiment: post-emergence herbicidal activity, johnsongrass; format: in vivo, Sorghum halepense; settings: postemergence, 1.0 kg/ha
Morningglory = experiment: pre-emergence herbicidal activity, morningglory; format: in vivo, Ipomea lacunosa or Ipomea hederacea; settings: preemergence, 1.0 kg/ha
Description: as §1, §2, §3, §4

Chickweed [6] = experiment: pre-emergence herbicidal activity, chickweed; format: in vivo, Stellaria media; settings: preemergence, 1.0 kg/ha
Description: as §1, §2, §3, §4

Green foxtail [7] = experiment: pre-emergence herbicidal activity, green foxtail; format: in vivo, Setaria viridis; settings: preemergence, 1.0 kg/ha
Description: as §1, §2, §3, §4

Cocklebur [8] = experiment: pre-emergence herbicidal activity, cocklebur; format: in vivo, Xanthium strumarium L.; settings: preemergence, 1.0 kg/ha
Description: as §1, §2, §3, §4

Johnsongrass [9] = experiment: pre-emergence herbicidal activity, johnsongrass; format: in vivo, Sorghum halepense; settings: preemergence, 1.0 kg/ha
Description: as §1, §2, §3, §4

Wheat [10] = experiment: pre-emergence herbicidal activity, wheat; format: in vivo, Triticum aestivum var. Lew; settings: preemergence, 1.0 kg/ha
Description: as §1, §2, §3, §4

Wheat [11] = experiment: post-emergence herbicidal activity, wheat; format: in vivo, Triticum aestivum var. Lew; settings: postemergence, 1.0 kg/ha
Soybean [12] = experiment: pre-emergence herbicidal activity, soybean; format: in vivo, Glycine max var. Winchester; settings: preemergence, 1.0 kg/ha
Description: as §1, §2, §3, §4

Blackgrass [13] = experiment: post-emergence herbicidal activity, blackgrass; format: in vivo, Aloepecurus myosuroides; settings: postemergence, 1.0 kg/ha
Green foxtail [14] = experiment: post-emergence herbicidal activity, green foxtail; format: in vivo, Setaria viridis; settings: postemergence, 1.0 kg/ha
Blackgrass [15] = experiment: pre-emergence herbicidal activity, blackgrass; format: in vivo, Aloepecurus myosuroides; settings: preemergence, 1.0 kg/ha
Description: as §1, §2, §3, §4

Corn [16] = experiment: post-emergence herbicidal activity, corn; format: in vivo, Zea mays var. Pioneer 3732; settings: postemergence, 1.0 kg/ha

Compound: CCOC(=O)C(Cl)Cc1cc(-c2nn(C)c(OC(F)F)c2Cl)c(F)cc1Cl (stereo not drawn) [Compound 2, Ethyl 2-chloro-3-[2-chloro-4-fluoro-5-(4-chloro-5-difluoromethoxy-1-methylpyrazol-3-yl)phenyl]propanoate]
- % CONTROL (Chickweed [1]): 100%
- % CONTROL (Cocklebur [2]): 100%
- % CONTROL (Velvetleaf): 100%
- % CONTROL (Soybean [3]): 100%
- % CONTROL (Corn [4]): 10%
- % CONTROL (Johnsongrass [5]): 90%
- % CONTROL (Morningglory): 100%
- % CONTROL (Chickweed [6]): 100%
- % CONTROL (Green foxtail [7]): 100%
- % CONTROL (Cocklebur [8]): 100%
- % CONTROL (Johnsongrass [9]): 70%
- % CONTROL (Wheat [10]): 30%
- % CONTROL (Wheat [11]): 55%
- % CONTROL (Soybean [12]): 90%
- % CONTROL (Blackgrass [13]): 60%
- % CONTROL (Green foxtail [14]): 100%
- % CONTROL (Blackgrass [15]): 50%
- % CONTROL (Corn [16]): 90%

Compound: CCOC(=O)C(Cl)Cc1cc(-c2nn(C)c(OC(F)F)c2Cl)c(Cl)cc1Cl (stereo not drawn) [Compound 1]
- % CONTROL (Chickweed [1]): 100%
- % CONTROL (Cocklebur [2]): 100%
- % CONTROL (Velvetleaf): 100%
- % CONTROL (Soybean [3]): 100%
- % CONTROL (Corn [4]): 40%
- % CONTROL (Johnsongrass [5]): 100%
- % CONTROL (Morningglory): 100%
- % CONTROL (Chickweed [6]): 100%
- % CONTROL (Green foxtail [7]): 100%
- % CONTROL (Cocklebur [8]): 100%
- % CONTROL (Johnsongrass [9]): 80%
- % CONTROL (Wheat [10]): 20%
- % CONTROL (Wheat [11]): 30%
- % CONTROL (Soybean [12]): 100%
- % CONTROL (Blackgrass [13]): 40%
- % CONTROL (Green foxtail [14]): 100%
- % CONTROL (Blackgrass [15]): 40%
- % CONTROL (Corn [16]): 60%

Reference: patent publication USH1942H, “Herbicidal 3-(pyrazolylphenyl)propanoic acids and derivatives” (FMC Corporation, priority 1998, dated 2001)
